Assay results reported in patent US10196364B2, “Pyrimidine carboxamides as sodium channel blockers” (Purdue Pharma L.P., priority 2013, dated 2019).

target: human Nav1.7 (Homo sapiens, UniProt Q15858); experiment: FLIPR sodium dye assay (CoroNa Green AM Na+ dye, primary fluorescence assay) in recombinant Nav1.7/HEK293 cells; format: cell-based; details: Table 6; CoroNa Green AM Na+ dye primary fluorescence assay; read-out: Nav1.7 Activity (μM) FLIPR assay IC50
Sequence (Q15858 1-1977 isoform Q15858-3): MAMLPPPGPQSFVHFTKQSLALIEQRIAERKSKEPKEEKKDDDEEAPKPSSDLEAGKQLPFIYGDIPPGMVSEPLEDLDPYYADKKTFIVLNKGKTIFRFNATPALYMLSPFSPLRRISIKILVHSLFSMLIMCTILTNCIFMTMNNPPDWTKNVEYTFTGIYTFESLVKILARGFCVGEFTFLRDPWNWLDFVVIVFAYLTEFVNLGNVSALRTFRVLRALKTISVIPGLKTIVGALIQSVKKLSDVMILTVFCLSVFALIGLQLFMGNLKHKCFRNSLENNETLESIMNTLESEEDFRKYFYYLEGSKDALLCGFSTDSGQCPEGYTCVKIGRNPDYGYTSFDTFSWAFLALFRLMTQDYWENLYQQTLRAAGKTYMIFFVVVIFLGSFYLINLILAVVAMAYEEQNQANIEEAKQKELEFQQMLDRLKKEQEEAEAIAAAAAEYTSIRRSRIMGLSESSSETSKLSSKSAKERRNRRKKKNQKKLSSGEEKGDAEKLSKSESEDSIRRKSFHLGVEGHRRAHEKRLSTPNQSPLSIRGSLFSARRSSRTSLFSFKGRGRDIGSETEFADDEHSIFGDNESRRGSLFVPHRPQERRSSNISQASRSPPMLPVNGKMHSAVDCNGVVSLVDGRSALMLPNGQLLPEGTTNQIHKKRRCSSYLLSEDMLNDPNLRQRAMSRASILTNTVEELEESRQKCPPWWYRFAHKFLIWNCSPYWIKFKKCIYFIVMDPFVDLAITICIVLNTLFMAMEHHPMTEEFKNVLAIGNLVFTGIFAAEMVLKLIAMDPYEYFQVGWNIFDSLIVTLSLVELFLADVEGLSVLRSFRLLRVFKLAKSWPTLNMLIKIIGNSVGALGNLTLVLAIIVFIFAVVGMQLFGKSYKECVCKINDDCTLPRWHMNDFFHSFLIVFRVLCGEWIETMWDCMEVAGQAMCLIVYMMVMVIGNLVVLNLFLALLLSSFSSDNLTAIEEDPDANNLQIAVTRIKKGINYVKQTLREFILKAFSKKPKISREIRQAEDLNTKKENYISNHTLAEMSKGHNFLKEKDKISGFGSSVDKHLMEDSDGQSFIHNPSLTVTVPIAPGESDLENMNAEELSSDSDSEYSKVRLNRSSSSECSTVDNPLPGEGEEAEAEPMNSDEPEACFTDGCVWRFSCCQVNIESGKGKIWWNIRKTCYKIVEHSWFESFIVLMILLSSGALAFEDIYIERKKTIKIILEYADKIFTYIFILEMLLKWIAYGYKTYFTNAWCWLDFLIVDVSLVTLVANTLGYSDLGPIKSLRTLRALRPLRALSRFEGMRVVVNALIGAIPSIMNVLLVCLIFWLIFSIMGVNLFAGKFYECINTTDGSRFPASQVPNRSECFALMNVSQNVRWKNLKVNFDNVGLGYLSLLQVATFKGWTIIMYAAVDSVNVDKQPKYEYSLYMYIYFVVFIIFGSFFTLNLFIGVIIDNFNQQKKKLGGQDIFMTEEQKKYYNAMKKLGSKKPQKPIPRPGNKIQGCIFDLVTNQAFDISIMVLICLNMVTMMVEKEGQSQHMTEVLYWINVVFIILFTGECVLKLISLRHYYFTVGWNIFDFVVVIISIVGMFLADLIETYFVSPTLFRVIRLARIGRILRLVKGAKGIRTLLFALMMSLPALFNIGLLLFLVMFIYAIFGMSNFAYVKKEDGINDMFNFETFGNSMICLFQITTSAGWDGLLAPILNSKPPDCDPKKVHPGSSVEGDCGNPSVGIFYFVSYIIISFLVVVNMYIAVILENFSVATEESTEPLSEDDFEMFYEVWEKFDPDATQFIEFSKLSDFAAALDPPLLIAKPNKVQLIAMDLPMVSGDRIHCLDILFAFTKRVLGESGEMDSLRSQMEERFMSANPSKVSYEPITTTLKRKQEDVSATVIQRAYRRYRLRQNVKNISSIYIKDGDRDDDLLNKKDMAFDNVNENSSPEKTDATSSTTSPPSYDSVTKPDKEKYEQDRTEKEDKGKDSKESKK

IC50 | Structure (SMILES)
0.93 µM | NC(=O)c1cc(N[C@H]2CCNC2=O)nc(C2CCC(Oc3ccc(C(F)(F)F)cn3)CC2)n1 (stereo partly drawn) [Cpd No. 214, (S)-6-((2-oxopyrrolidin-3-yl)amino)-2-(4-((5-(trifluoromethyl)pyridin-2-yl)oxy)cyclohexyl)pyrimnidine-4-carboxamide]
> 20 µM | C[C@H](Nc1cc(C(N)=O)nc(Oc2ccc(F)cc2)n1)C(N)=O [compound 104, (S)-6-((1-amino-1-oxopropan-2-yl)amino)-2-(4-fluorophenoxy)pyrimidine-4-carboxamide]
> 20 µM | C[C@H](Nc1cc(C(N)=O)nc(-c2cc(F)c(OCc3ccccc3)cc2F)n1)C(N)=O [compound 105, (S)-6-((1-amino-1-oxopropan-2-yl)amino)-2-(4-(benzyloxy)-2,5-difluorophenyl)pyrimidine-4-carboxamide]
10 to 20 µM | C[C@H](Nc1cc(C(N)=O)nc(N2CC3CC2CN3c2ccc(F)cc2)n1)C(N)=O (stereo partly drawn) [compound 106, 6-(((S)-1-amino-1-oxopropan-2-yl)amino)-2-(5-(4-fluorophenyl)-2,5-diazabicyclo[2.2.1]heptan-2-yl)pyrimidine-4-carboxamide]
1.95 µM | C[C@H](Nc1cc(C(N)=O)nc(N2CCC(Cc3ccccc3)CC2)n1)C(N)=O [compound 107, (S)-6-((1-amino-1-oxopropan-2-yl)amino)-2-(4-benzylpiperidin-1-yl)pyrimidine-4-carboxamide]
0.29 µM | NC(=O)c1cc(N2CCNCC2C(N)=O)nc(-c2ccc(Oc3ccc(Cl)cc3F)cc2)n1 (stereo not drawn) [compound 108, 6-(2-carbamoylpiperazin-1-yl)-2-(4-(4-chloro-2-fluorophenoxy)phenyl)pyrimnidine-4-carboxamide]
0.11 µM | C[C@H](Nc1cc(C(N)=O)nc(-c2ccc(Oc3ccc4c(c3)CCC4)cc2)n1)C(N)=O [compound 109, (S)-6-((1-amino-1-oxopropan-2-yl)amino)-2-(4-((2,3-dihydro-1H-inden-5-yl)oxy)phenyl)pyrimidine-4-carboxamide]
0.2 µM | C[C@@H](Nc1cc(C(N)=O)nc(-c2ccc(Oc3ccc(C(C)(C)C)cc3)cc2)n1)C(N)=O [compound 110, (R)-6-((1-amino-1-oxopropan-2-yl)amino)-2-(4-(4-(tert-butyl)phenoxy)phenyl)pyrimidine-4-carboxamide]
7.88 µM | C[C@H](Nc1cc(C(N)=O)nc(-c2ccc(Oc3ccc(F)cc3)c(C(N)=O)c2)n1)C(N)=O [compound 111, (S)-6-((1-amino-1-oxopropan-2-yl)amino)-2-(3-carbamoyl-4-(4-fluorophenoxy)phenyl)pyrimidine-4-carboxamide]
0.38 µM | CC(C)N1CCN(c2cc(C(N)=O)nc(-c3ccc(Oc4ccc(F)cc4)cc3)n2)C(C(N)=O)C1 (stereo not drawn) [compound 112, 6-(2-carbamoyl-4-isopropylpiperazin-1-yl)-2-(4-(4-fluorophenoxy)phenyl)pyrimidine-4-carboxamide]
0.29 µM | N#Cc1ccc(Oc2ccc(-c3nc(N[C@H]4CCNC4=O)cc(C(N)=O)n3)cc2)cc1 [compound 113, (S)-2-(4-(4-cyanophenoxy)phenyl)-6-((2-oxopyrrolidin-3-yl)amino)pyrimidine-4-carboxamide]
0.33 µM | NC(=O)c1cc(N[C@H]2CCNC2=O)nc(-c2ccc(Oc3ccc(C(F)(F)F)cc3)cc2)n1 [compound 114, (S)-6-((2-oxopyrrolidin-3-yl)amino)-2-(4-(4-(trifluoromethyl)phenoxy)phenyl)pyrimidine-4-carboxamide]
0.3 µM | NC(=O)c1cc(N[C@H]2CCNC2=O)nc(-c2ccc(Oc3ccc4c(c3)OCO4)cc2)n1 [compound 115, (S)-2-(4-(benzo[d][1,3]dioxol-5-yloxy)phenyl)-6-((2-oxopyrrolidin-3-yl)amino)pyrimnidine-4-carboxamide]
0.18 µM | NC(=O)c1cc(N[C@H]2CCNC2=O)nc(-c2ccc(Oc3ccc(OC(F)(F)F)cc3)cc2)n1 [compound 116, (S)-6-((2-oxopyrrolidin-3-yl)amino)-2-(4-(4-(trifluoromethoxy)phenoxy)phenyl)pyrimidine-4-carboxamide]
0.35 µM | NC(=O)c1cc(O[C@H]2CCNC2=O)nc(-c2ccc(Oc3ccc(F)cc3)cc2)n1 [compound 118, (S)-2-(4-(4-fluorophenoxy)phenyl)-6-((2-oxopyrrolidin-3-yl)oxy)pyrimidine-4-carboxamide]
0.12 µM | NC(=O)c1cc(OCCN2CCCC2=O)nc(-c2ccc(Oc3ccc(C(F)(F)F)cc3)cc2)n1 [compound 119, 6-(2-(2-oxopyrrolidin-1-yl)ethoxy)-2-(4-(4-(trifluoromethyl)phenoxy)phenyl)pyrimidine-4-carboxamide]

IC50 | Structure (SMILES)
0.76 µM | CC(C)(CO)[C@H](Oc1cc(C(N)=O)nc(-c2ccc(Oc3ccc(C(F)(F)F)cc3)cc2)n1)C(N)=O [compound 120, (S)-6-((1-amino-4-hydroxy-3,3-dimethyl-1-oxobutan-2-yl)oxy)-2-(4-(4-(trifluoromethyl)phenoxy)phenyl) pyrimidine-4-carboxamide]
1.01 µM | NC(=O)c1cc(O[C@@H](CO)C(N)=O)nc(-c2ccc(Oc3ccc(C(F)(F)F)cc3)cc2)n1 [compound 121, (S)-6-((1-amino-3-hydroxy-1-oxopropan-2-yl)oxy)-2-(4-(4-(trifluoromethyl)phenoxy)phenyl)pyrimidine-4-carboxamide]
0.8 µM | C=CCN1CC[C@H](Oc2cc(C(N)=O)nc(-c3ccc(Oc4ccc(F)cc4)cc3)n2)C1=O [compound 122, (S)-6-((1-allyl-2-oxopyrrolidin-3-yl)oxy)-2-(4-(4-fluorophenoxy)phenyl)pyrimidine-4-carboxamide]
0.67 µM | NC(=O)c1cc(O[C@H]2CCN(C[C@H](O)CO)C2=O)nc(-c2ccc(Oc3ccc(F)cc3)cc2)n1 [compound 123, 6-(((S)-1-((S)-2,3-dihydroxypropyl)-2-oxopyrrolidin-3-yl)oxy)-2-(4-(4-fluorophenoxy)phenyl)pyrimidine-4-carboxamide]
0.7 µM | NC(=O)c1cc(O[C@H](C(N)=O)C(O)CO)nc(-c2ccc(Oc3ccc(C(F)(F)F)cc3)cc2)n1 (stereo partly drawn) [compound 124, 6-(((2S)-1-amino-3,4-dihydroxy-1-oxobutan-2-yl)oxy)-2-(4-(4-(trifluoromethyl)phenoxy)phenyl)pyrimidine-4-carboxamide]
0.28 µM | NC(=O)c1cc(N2CCC[C@H]2C(N)=O)nc(-c2ccc(Oc3ccc(OC(F)(F)F)cc3)cc2)n1 [compound 125, (S)-6-(2-carbamoylpyrrolidin-1-yl)-2-(4-(4-(trifluoromethoxy)phenoxy)phenyl)pyrimnidine-4-carboxamide]
> 20 µM | NC(=O)c1cc(-c2ccc(Oc3ccc(OC(F)(F)F)cc3)cc2)nc(N2CCC[C@H]2C(N)=O)n1 [compound 126, (S)-2-(2-carbamoylpyrrolidin-1-yl)-6-(4-(4-(trifluoromethoxy)phenoxy)phenyl)pyrimidine-4-carboxamide]
0.26 µM | NC(=O)c1cc(OCCN2CCNC2=O)nc(-c2ccc(Oc3ccc(C(F)(F)F)cc3)cc2)n1 [compound 127, 6-(2-(2-oxoimidazolidin-1-yl)ethoxy)-2-(4-(4-(trifluoromethyl)phenoxy)phenyl) pyrimnidine-4-carboxamide]
> 20 µM | C[C@H](Nc1cc(C(N)=O)nc(-c2ccc(Oc3ccc(C#N)cc3)cc2C(F)(F)F)n1)C(N)=O [compound 128, (S)-6-((1-amino-1-oxopropan-2-yl)amino)-2-(4-(4-cyanophenoxy)-2-(trifluoromethyl)phenyl)pyrimidine-4-carboxamide]
0.26 µM | C[C@H](Oc1cc(C(N)=O)nc(-c2ccc(Oc3ccc4c(c3)CCC4)cc2)n1)C(N)=O [compound 129, (S)-6-((1-amino-1-oxopropan-2-yl)oxy)-2-(4-((2,3-dihydro-1H-inden-5-yl)oxy)phenyl)pyrimidine-4-carboxamide]
1.77 µM | COCc1cc(Oc2ccc(F)cc2)ccc1-c1nc(N[C@@H](C)C(N)=O)cc(C(N)=O)n1 [compound 130, (S)-6-((1-amino-1-oxopropan-2-yl)amino)-2-(4-(4-fluorophenoxy)-2-(methoxymethyl)phenyl)pyrimidine-4-carboxamide]
0.22 µM | CN1CCC(Nc2cc(C(N)=O)nc(-c3ccc(Oc4ccc(F)cc4)cc3)n2)C1=O (stereo not drawn) [compound 131, 2-(4-(4-fluorophenoxy)phenyl)-6-((1-methyl-2-oxopyrrolidin-3-yl)amino)pyrimnidine-4-carboxamide]
0.28 µM | NC(=O)c1cc(N2CC[C@H]2C(N)=O)nc(-c2ccc(Oc3ccc(F)cc3)cc2)n1 [compound 132, (S)-6-(2-carbamoylazetidin-1-yl)-2-(4-(4-fluorophenoxy)phenyl)pyrimidine-4-carboxamide]
> 20 µM | NC(=O)c1cc(N[C@H]2CCNC2=O)nc(N2CC3CC2CN3Cc2ccc(OC(F)(F)F)cc2)n1 (stereo partly drawn) [compound 136, 6-(((S)-2-oxopyrrolidin-3-yl)amino)-2-(5-(4-(trifluoromethoxy)benzyl)-2,5-diazabicyclo[2.2.1]heptan-2-yl)pyrimidine-4-carboxamide]
4.17 µM | O=C(NCCN1CCCC1)c1cc(N[C@H]2CCNC2=O)nc(-c2ccc(Oc3ccc(C(F)(F)F)cn3)cc2)n1 [compound 137, (S)-6-((2-oxopyrrolidin-3-yl)amino)-N-(2-(pyrrolidin-1-yl)ethyl)-2-(4-((5-(trifluoromethyl)pyridin-2-yl)oxy)phenyl)pyrimidine-4-carboxamide]

Structure (SMILES) | IC50
NC(=O)c1cc(N[C@H]2CCNC2=O)nc(N2C3CCC2CC(Oc2ccc(C(F)(F)F)cc2)C3)n1 (stereo partly drawn) [compound 135, 6-(((S)-2-oxopyrrolidin-3-yl)amino)-2-(3-(4-(trifluoromethyl)phenoxy)-8-azabicyclo[3.2.1]octan-8-yl)pyrimidine-4-carboxamide] | 1.62 µM
NC(=O)c1cc(N[C@H]2CCNC2=O)nc(C2=C[C@H]3CC[C@@H](C2)N3Cc2ccc(F)cc2)n1 [compound 138, 2-((1R,5S)-8-(4-fluorobenzyl)-8-azabicyclo[3.2.1]oct-2-en-3-yl)-6-(((S)-2-oxopyrrolidin-3-yl)amino)pyrimidine-4-carboxamide] | > 20 µM
